Tests used:
[1] = test system: MI hearts; assay: Whole-body PET imaging of ^18F-OM for detection of MI in mice; type: in vivo; conditions: for cardiac uptake in MI hearts compared to sham/normal hearts, PET: occluded left anterior descending coronary artery model
Description: Approximately 80 uCi of ^18F-OM was injected and images were acquired after 4 h. […] In another non-limiting embodiment of the present disclosure, the OM or OM-liposomes can be labeled with ^18F radionuclide for PET imaging of myocardial infarction as an infarct-avid radiotracer. Unlike radiotracers for perfusion imaging, infarct-avid agents are not taken up by normal myocardium and only accumulate at the site of acute infarct. Therefore, infarct radiotracers produce images with less background and improved signal-to-noise ratio. Currently, no infarct-avid radiotracer is available for clinical PET imaging of infarct tissue. […] After successful labeling, we investigated ^18F-OM for detection of MI in a mouse model of occluded anterior descending branch of the left coronary artery. After imaging, the mice were euthanized to collect various organs for counting of tissue-associated radioactivity.

[2] = clinical PK profile; cited from earlier work
[3] = approx. 80 uCi, images after 4 h, FIG. 6

accumulation in sham hearts, PET ([1]; FIG. 7) | background signal from accumulation in liver and lung tissue ([1]; PET, mice) | accumulation in hearts of MI mice, whole-body PET [1, 3] | accumulation in normal hearts of control mice, whole-body PET [1, 3] | cardiac uptake in MI hearts compared to sham/normal hearts, PET ([1]; FIG. 7) | cardiac uptake in MI hearts compared to sham/normal hearts, PET ([1]; FIG. 7, listed as [18F]-OMA) | SMILES | detection of surgical MI, target/non-target ratio ([1]; PET, mice, FIG. 6) | mean apparent terminal elimination half-life (t1/2) [2]
accumulated significant | lack of background signal | high accumulation | no visible accumulation | significantly more pronounced | distinctly high uptake | COC(=O)N1CCN(Cc2cccc(NC(=O)Nc3ccc(C)nc3)c2OCCF)CC1 [^18F-OM, Methyl 4-(2-(2-fluoroethoxy)-3-(3-(6-methylpyridin-3-yl)ureido)benzyl)piperazine-1-carboxylate] | high target/non-target ratio | 
 |  |  |  |  |  | COC(=O)N1CCN(Cc2cccc(NC(=O)Nc3ccc(C)nc3)c2F)CC1 [OM, omecamtiv mecarbil] |  | 18.5 h
